Here are results for six compounds from patent publication US12139520B2 (priority 2020, dated 2024).

The target of series [1] is T1, hAMY3 receptor (Homo sapiens, UniProt O60896+P30988).
T1 sequence (P30988 25-474): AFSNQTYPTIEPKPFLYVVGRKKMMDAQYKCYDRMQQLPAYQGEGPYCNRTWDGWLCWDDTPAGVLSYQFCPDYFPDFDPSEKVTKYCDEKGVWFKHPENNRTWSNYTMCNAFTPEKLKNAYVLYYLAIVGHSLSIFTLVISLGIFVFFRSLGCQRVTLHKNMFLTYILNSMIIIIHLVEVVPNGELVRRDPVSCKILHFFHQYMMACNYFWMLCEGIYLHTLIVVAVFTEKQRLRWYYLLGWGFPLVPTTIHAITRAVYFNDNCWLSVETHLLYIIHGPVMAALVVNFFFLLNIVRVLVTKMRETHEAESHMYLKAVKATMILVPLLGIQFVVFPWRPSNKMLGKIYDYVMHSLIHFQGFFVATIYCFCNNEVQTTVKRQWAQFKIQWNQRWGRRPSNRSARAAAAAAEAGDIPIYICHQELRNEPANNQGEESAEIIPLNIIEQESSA
T1 sequence (O60896 24-148 partner): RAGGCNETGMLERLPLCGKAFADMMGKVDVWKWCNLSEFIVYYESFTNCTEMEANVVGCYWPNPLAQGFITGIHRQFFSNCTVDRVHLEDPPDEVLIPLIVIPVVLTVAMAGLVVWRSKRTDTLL
Description: cAMP assay for in vitro receptor activation, hAMY3-R. It counts as cell-based. The settings on record: cAMP assay, hAMY3 receptor; read-out: hAMY3R EC50. In a few lines: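 Receptor activation was measured as cAMP accumulation in a monoclonal cell line stably overexpressing hAMY3. Stimulation with graded doses lasted 30 min at room temperature in the presence of 0.5 mM IBMX, with human amylin as positive control.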
For orientation: cAMP levels reflect the balance of adenylyl cyclase and phosphodiesterase activity.

The nature of series [2]: Physical stability of peptide analogues (Thioflavin T fibrillation). Type of series: physicochemical. The note with it: maximum ThT signal normalized between hAMY maximum and buffer background; 40° C., shaking, four days; pH 7 per table title. The essentials:
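Samples are stressed at 40 °C for four days, being shaken at 700 rpm before each 10-min fluorescence reading of 4 μM Thioflavin T. Buffers were pH 4 acetate or pH 7 phosphate. Reported values are smoothed maximum ThT signals as a percentage of the hAMY-to-background range.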

Structures are written as SMILES. Bridge positions count the residues as written; N and C are the ends. Square brackets hold non-standard residues; d marks the D form. Peptide text beside a SMILES is read from it. Hyp = O=C(O)[C@@H]1C[C@@H](O)CN1; Cit = NC(=O)NCCC[C@H](N)C(=O)O

For orientation: EC50 means the concentration that produces a half-maximal response.

Take `CC(C)C[C@H](NC(=O)[C@H](CCCNC(N)=O)NC(=O)[C@H](CCC(N)=O)NC(=O)[C@@H](NC(=O)[C@@H](NC(=O)[C@@H]1CSSC[C@H](NC(=O)CN)C(=O)N[C@@H](CCCNC(=N)N)C(=O)N[C@@H](Cc2ccccc2)C(=O)NCC(=O)N[C@@H]([C@@H](C)O)C(=O)N1)[C@@H](C)O)C(C)C)C(=O)N[C@@H](C)C(=O)N[C@@H](Cc1c[nH]cn1)C(=O)N[C@@H](Cc1ccccc1)C(=O)N[C@@H](CC(C)C)C(=O)N[C@@H](Cc1ccc(O)cc1)C(=O)N[C@@H](CCC(N)=O)C(=O)N[C@@H](Cc1ccccc1)C(=O)N[C@H](C(=O)N[C@@H](CC(=O)O)C(=O)N[C@@H](CCCCN)C(=O)N[C@@H](CC(=O)O)C(=O)N[C@@H](CCCCN)C(=O)N[C@@H](CC(=O)O)C(=O)N[C@@H](CC(N)=O)C(=O)N[C@H](C(=O)N[C@@H](C)C(=O)N1CCC[C@H]1C(=O)N[C@@H](CCCNC(=N)N)C(=O)N[C@H](C(=O)N[C@@H](CC(N)=O)C(=O)N[C@H](C(=O)NCC(=O)N1CCC[C@H]1C(=O)N[C@@H](CCC(N)=O)C(=O)NCC(=O)N[C@@H](Cc1ccc(O)cc1)C(N)=O)C(C)C)[C@@H](C)O)C(C)C)[C@@H](C)O` [compound 263] (H-GCRFGTCTVQ[Cit]LAHFLYQFTDKDKDNVAPRTNVGPQGY-NH2; disulfide 2-7; N-terminus assumed): the half-maximal effective concentration (EC50) in series [1] came out at 5 pM. In addition, in series [2], the “Max ThT signal (%)” value came to 1.050%.
For the compound `CC(C)C[C@H](NC(=O)[C@H](CCCNC(N)=O)NC(=O)[C@H](CCC(N)=O)NC(=O)[C@@H](NC(=O)[C@@H](NC(=O)[C@@H]1CSSC[C@H](NC(=O)CN)C(=O)N[C@@H](CCCNC(=N)N)C(=O)N[C@@H](Cc2ccccc2)C(=O)NCC(=O)N[C@@H]([C@@H](C)O)C(=O)N1)[C@@H](C)O)C(C)C)C(=O)N[C@@H](C)C(=O)N[C@@H](Cc1c[nH]cn1)C(=O)N[C@@H](Cc1ccccc1)C(=O)N[C@@H](CC(C)C)C(=O)N[C@@H](Cc1ccc(O)cc1)C(=O)N[C@@H](CCC(N)=O)C(=O)N[C@@H](Cc1ccccc1)C(=O)N[C@H](C(=O)N[C@@H](CC(=O)O)C(=O)N[C@@H](CCCCN)C(=O)N[C@@H](CC(=O)O)C(=O)N[C@@H](CCCCN)C(=O)N[C@@H](CC(=O)O)C(=O)N[C@@H](CC(N)=O)C(=O)N[C@H](C(=O)N[C@@H](C)C(=O)N1CCC[C@H]1C(=O)N[C@@H](CCCNC(=N)N)C(=O)N[C@H](C(=O)N[C@@H](CC(N)=O)C(=O)N[C@H](C(=O)NCC(=O)N[C@@H](CO)C(=O)N[C@@H](CC(N)=O)C(=O)N[C@H](C(=O)N[C@@H](Cc1ccc(O)cc1)C(N)=O)[C@@H](C)O)C(C)C)[C@@H](C)O)C(C)C)[C@@H](C)O` [compound 264] (H-GCRFGTCTVQ[Cit]LAHFLYQFTDKDKDNVAPRTNVGSNTY-NH2; disulfide 2-7), in series [1], the concentration giving a half-maximal response (EC50) turned out to be 6 pM. In series [2], the “Max ThT signal (%)” value is 1.350%.
As to `CC[C@H](C)[C@H](NC(=O)[C@H](CCC(N)=O)NC(=O)[C@H](Cc1c[nH]cn1)NC(=O)[C@H](C)NC(=O)[C@H](CC(C)C)NC(=O)[C@H](CCCNC(N)=O)NC(=O)[C@H](CCC(N)=O)NC(=O)[C@@H](NC(=O)[C@@H](NC(=O)[C@@H]1CSSC[C@H](NC(=O)CN)C(=O)N[C@@H](CCCNC(=N)N)C(=O)N[C@@H](Cc2ccccc2)C(=O)NCC(=O)N[C@@H]([C@@H](C)O)C(=O)N1)[C@@H](C)O)C(C)C)C(=O)N[C@@H](Cc1ccc(O)cc1)C(=O)N[C@@H](CCC(N)=O)C(=O)N[C@@H](Cc1ccccc1)C(=O)N[C@H](C(=O)N[C@@H](CC(=O)O)C(=O)N[C@@H](CCCCN)C(=O)N[C@@H](CC(=O)O)C(=O)N[C@@H](CCCCN)C(=O)N[C@@H](CC(=O)O)C(=O)N[C@@H](CC(N)=O)C(=O)N[C@H](C(=O)N[C@@H](C)C(=O)N1CCC[C@H]1C(=O)N[C@@H](CCCNC(=N)N)C(=O)N[C@H](C(=O)N[C@@H](CC(N)=O)C(=O)N[C@H](C(=O)NCC(=O)N1CCC[C@H]1C(=O)N[C@@H](CCC(N)=O)C(=O)NCC(=O)N1C[C@H](O)C[C@H]1C(N)=O)C(C)C)[C@@H](C)O)C(C)C)[C@@H](C)O` [compound 267] (H-GCRFGTCTVQ[Cit]LAHQIYQFTDKDKDNVAPRTNVGPQG[Hyp]-NH2; disulfide 2-7; N-terminus assumed), the EC50 in series [1] was 7 pM. In series [2], the “Max ThT signal (%)” value turned out to be 30.900%.
On to `CC[C@H](C)[C@H](NC(=O)[C@H](CCC(N)=O)NC(=O)[C@H](Cc1c[nH]cn1)NC(=O)[C@H](C)NC(=O)[C@H](CC(C)C)NC(=O)[C@H](CCCNC(N)=O)NC(=O)[C@H](CCC(N)=O)NC(=O)[C@@H](NC(=O)[C@@H](NC(=O)[C@@H]1CSSC[C@H](NC(=O)CN)C(=O)N[C@@H](CCCNC(=N)N)C(=O)N[C@@H](Cc2ccccc2)C(=O)NCC(=O)N[C@@H]([C@@H](C)O)C(=O)N1)[C@@H](C)O)C(C)C)C(=O)N[C@@H](Cc1ccc(O)cc1)C(=O)N[C@@H](CCC(N)=O)C(=O)N[C@@H](Cc1ccccc1)C(=O)N[C@H](C(=O)N[C@@H](CC(=O)O)C(=O)N[C@@H](CCCCN)C(=O)N[C@@H](CC(=O)O)C(=O)N[C@@H](CCCCN)C(=O)N[C@@H](CC(=O)O)C(=O)N[C@@H](CC(N)=O)C(=O)N[C@H](C(=O)N[C@@H](C)C(=O)N1CCC[C@H]1C(=O)N[C@@H](CCCNC(=N)N)C(=O)N[C@H](C(=O)N[C@@H](CC(N)=O)C(=O)N[C@H](C(=O)NCC(=O)N1CCC[C@H]1C(=O)N[C@@H](CC(N)=O)C(=O)NCC(=O)N1C[C@H](O)C[C@H]1C(N)=O)C(C)C)[C@@H](C)O)C(C)C)[C@@H](C)O` [compound 270] (H-GCRFGTCTVQ[Cit]LAHQIYQFTDKDKDNVAPRTNVGPNG[Hyp]-NH2; disulfide 2-7; N-terminus assumed), for which the EC50 in series [1] was 3 pM. Further, in series [2], the “Max ThT signal (%)” value came out at 25.450%.
Regarding `CC[C@H](C)[C@H](NC(=O)[C@H](CCC(N)=O)NC(=O)[C@H](Cc1c[nH]cn1)NC(=O)[C@H](C)NC(=O)[C@H](CC(C)C)NC(=O)[C@H](CCCNC(N)=O)NC(=O)[C@H](CCC(N)=O)NC(=O)[C@@H](NC(=O)[C@@H](NC(=O)[C@@H]1CSSC[C@H](NC(=O)CN)C(=O)N[C@@H](CCCNC(=N)N)C(=O)N[C@@H](Cc2ccccc2)C(=O)NCC(=O)N[C@@H]([C@@H](C)O)C(=O)N1)[C@@H](C)O)C(C)C)C(=O)N[C@@H](Cc1ccc(O)cc1)C(=O)N[C@@H](CCC(N)=O)C(=O)N[C@@H](Cc1ccccc1)C(=O)N[C@H](C(=O)N[C@@H](CC(=O)O)C(=O)N[C@@H](CCCCN)C(=O)N[C@@H](CC(=O)O)C(=O)N[C@@H](CCCCN)C(=O)N[C@@H](CC(=O)O)C(=O)N[C@@H](CC(N)=O)C(=O)N[C@H](C(=O)N[C@@H](C)C(=O)N1CCC[C@H]1C(=O)N[C@@H](CCCNC(=N)N)C(=O)N[C@H](C(=O)N[C@@H](CC(N)=O)C(=O)N[C@H](C(=O)N[C@@H](CO)C(=O)N1CCC[C@H]1C(=O)N[C@@H](CC(N)=O)C(=O)NCC(=O)N[C@@H](Cc1ccc(O)cc1)C(N)=O)C(C)C)[C@@H](C)O)C(C)C)[C@@H](C)O` [compound 271] (H-GCRFGTCTVQ[Cit]LAHQIYQFTDKDKDNVAPRTNVSPNGY-NH2; disulfide 2-7; N-terminus assumed), in series [1], the half-maximal effective concentration (EC50) is 10 pM. The “Max ThT signal (%)” value in series [2] was 10.850%.
With `CC[C@H](C)[C@H](NC(=O)[C@H](CCCCN)NC(=O)[C@@H](NC(=O)[C@H](CCCNC(=N)N)NC(=O)[C@@H]1CCCN1C(=O)[C@H](C)NC(=O)[C@@H](NC(=O)[C@H](CC(N)=O)NC(=O)[C@H](CC(=O)O)NC(=O)[C@H](CCCCN)NC(=O)[C@H](CC(=O)O)NC(=O)[C@H](CCCCN)NC(=O)[C@H](CC(=O)O)NC(=O)[C@@H](NC(=O)[C@H](Cc1ccccc1)NC(=O)[C@H](CCC(N)=O)NC(=O)[C@H](Cc1ccc(O)cc1)NC(=O)[C@@H](NC(=O)[C@H](CCC(N)=O)NC(=O)[C@H](Cc1c[nH]cn1)NC(=O)[C@H](C)NC(=O)[C@H](CC(C)C)NC(=O)[C@H](CCCNC(N)=O)NC(=O)[C@H](CCC(N)=O)NC(=O)[C@@H](NC(=O)[C@@H](NC(=O)[C@@H]1CSSC[C@H](NC(=O)CN)C(=O)N[C@@H](CCCNC(=N)N)C(=O)N[C@@H](Cc2ccccc2)C(=O)NCC(=O)N[C@@H]([C@@H](C)O)C(=O)N1)[C@@H](C)O)C(C)C)[C@@H](C)CC)[C@@H](C)O)C(C)C)[C@@H](C)O)C(=O)NCC(=O)N1CCC[C@H]1C(=O)N[C@@H](CCC(N)=O)C(=O)NCC(=O)N1C[C@H](O)C[C@H]1C(N)=O` [compound 274] (H-GCRFGTCTVQ[Cit]LAHQIYQFTDKDKDNVAPRTKIGPQG[Hyp]-NH2; disulfide 2-7; N-terminus assumed), the EC50 in series [1] stood at 19 pM. In addition, the “Max ThT signal (%)” value in series [2] is listed as 26.800%.
